This note sets out measurements from US7678787B2, “Pyrrolobenzodiazepine pyridine carboxamides and derivatives as follicle-stimulating hormone receptor antagonists” (Wyeth, priority 2005, dated 2010).

Like-named read-outs stand apart in the source and are kept apart here.

The target of data set [1] is T1, human FSH receptor (Homo sapiens, UniProt P23945).
T1 construct: host or cells: CHO-K1 (CHO FSH-R 6CRE-Luc, 1D7 cells)
T1 sequence (P23945 18-695): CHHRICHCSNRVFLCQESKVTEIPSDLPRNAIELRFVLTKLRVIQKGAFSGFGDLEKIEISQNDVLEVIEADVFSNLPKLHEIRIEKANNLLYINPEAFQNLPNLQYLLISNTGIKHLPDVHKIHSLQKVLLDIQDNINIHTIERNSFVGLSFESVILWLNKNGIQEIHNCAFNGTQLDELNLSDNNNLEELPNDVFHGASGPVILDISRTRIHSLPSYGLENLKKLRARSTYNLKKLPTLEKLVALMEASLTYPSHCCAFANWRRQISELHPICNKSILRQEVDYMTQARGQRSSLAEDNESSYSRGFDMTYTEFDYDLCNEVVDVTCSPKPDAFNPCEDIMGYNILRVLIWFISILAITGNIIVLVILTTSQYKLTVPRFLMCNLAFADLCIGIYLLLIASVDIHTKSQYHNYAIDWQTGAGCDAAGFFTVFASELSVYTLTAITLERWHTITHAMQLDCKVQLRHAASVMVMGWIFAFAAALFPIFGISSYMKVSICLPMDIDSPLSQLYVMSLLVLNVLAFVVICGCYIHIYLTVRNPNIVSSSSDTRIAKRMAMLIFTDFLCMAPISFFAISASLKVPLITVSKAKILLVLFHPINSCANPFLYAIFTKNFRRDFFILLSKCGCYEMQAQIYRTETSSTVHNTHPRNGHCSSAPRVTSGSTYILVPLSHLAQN
In words: FSH receptor-dependent CRE-luciferase reporter gene assay (CHO FSH-R 6CRE-Luc cells). It is filed as cell-based.

The mark [2] stands for this setting: 2-dose format, test concentration in parentheses = 30 μM, percent inhibition of response to EC50 of FSH, read-out: CRE % inhibition.

`CC(Oc1ccccc1)C(=O)N1Cc2ccc(C(=O)NCc3cccnc3)n2Cc2ccccc21` (stereo not shown) [Example 137] registered a melting point of 83 °C. The inhibition at 30 µM in data set [1] (setting [2]) came out at 16%.

With `Cc1cc(C(=O)N2Cc3ccc(C(=O)NCc4cccnc4)n3Cc3ccccc32)ccc1-c1ccc(Cl)c(Cl)c1` [Example 25], the inhibition at 30 µM in data set [1] (setting [2]) came to 11%.

With `O=C(NCc1cccnc1)c1ccc2n1Cc1ccccc1N(C(=O)c1ccccc1F)C2` [Example 97], the melting point was 142 to 143 °C. In addition, the inhibition at 30 µM in data set [1] (setting [2]) was 18%.

`O=C(NCc1cccnc1)c1ccc2n1Cc1ccccc1N(C(=O)Cc1ccc(-c3ccccc3)cc1)C2` [Example 143] displayed a melting point of 153 to 155 °C. In addition, the inhibition at 30 µM in data set [1] (setting [2]) amounted to 48%.

For the compound `O=C(NCc1cccnc1)c1ccc2n1Cc1ccccc1N(C(=O)C1CCCCC1)C2` [Example 149, 10-(CYCLOHEXYLCARBONYL)-N-(PYRIDIN-3-YLMETHYL)-10,11-DIHYDRO-5H-PYRROLO[2,1-C][1,4] BENZODIAZEPINE-3-CARBOXAMIDE], in data set [1] (setting [2]), the inhibition at 30 µM stood at 8%.

Regarding `CC(C)(C)c1ccc(OCC(=O)N2Cc3ccc(C(=O)NCc4cccnc4)n3Cc3ccccc32)cc1` [Example 135], the melting point was 85 °C. For the same compound, the inhibition at 30 µM in data set [1] (setting [2]) worked out at 34%.

`O=C(NCc1cccnc1)c1ccc2n1Cc1ccccc1N(C(=O)c1cccnc1)C2` [Example 124]: in data set [1] (setting [2]), the inhibition at 30 µM turned out to be 7%.

As for `O=C(NCc1cccnc1)c1ccc2n1Cc1ccccc1N(C(=O)CSc1ccc(Br)cc1)C2` [Example 141], the inhibition at 30 µM in data set [1] (setting [2]) came out at 32%.

`O=C(NCc1cccnc1)c1ccc2n1Cc1ccccc1N(S(=O)(=O)c1ccc(-c3ccccc3Cl)cc1)C2` [Example 72]: the inhibition at 30 µM in data set [1] (setting [2]) was found to be 6.61%.

As for `Cc1ccccc1C(=O)N1Cc2ccc(C(=O)NCc3cccnc3)n2Cc2ccccc21` [Example 94], the inhibition at 30 µM in data set [1] (setting [2]) is 17%.

On to `CN(Cc1ccccc1)c1ccc(C(=O)N2Cc3ccc(C(=O)NCc4cccnc4)n3Cc3ccccc32)cn1` [Example 130], for which the inhibition at 30 µM in data set [1] (setting [2]) was found to be 26%.

In turn, `COC(=O)c1ccc(C(=O)N2Cc3ccc(C(=O)NCc4cccnc4)n3Cc3ccccc32)cc1` [Example 87, METHYL 4-{[3-{[(PYRIDIN-3-YLMETHYL)AMINO]CARBONYL}-5H-PYRROLO[2,1-C][1,4]BENZODIAZEPIN-10(11H)-YL]CARBONYL}BENZOATE] yielded a melting point of 170 to 172 °C. For the same compound, the inhibition at 30 µM in data set [1] (setting [2]) is 38%.

Take `O=C(NCc1cccnc1)c1ccc2n1Cc1ccccc1N(C(=O)/C=C/c1ccccc1)C2` [Example 144]: the melting point was found to be 175 °C. The inhibition at 30 µM in data set [1] (setting [2]) turned out to be 35%.

For `COc1ccccc1-c1ccc(S(=O)(=O)N2Cc3ccc(C(=O)NCc4cccnc4)n3Cc3ccccc32)cc1` [Example 71], the inhibition at 30 µM in data set [1] (setting [2]) turned out to be 17.3%.

For `O=C(NCc1cccnc1)c1ccc2n1Cc1ccccc1N(C(=O)c1ccc(N3CCCCC3)nc1)C2` [Example 125], the inhibition at 30 µM in data set [1] (read-out: CRE % inhibition (μM)) was found to be 31%.

Turning to `N#Cc1ccc(C(=O)N2Cc3ccc(C(=O)NCc4cccnc4)n3Cc3ccccc32)cc1` [Example 90], in data set [1] (setting [2]), the inhibition at 30 µM came to 13%.

`CC(C)(C)CC(=O)N1Cc2ccc(C(=O)NCc3cccnc3)n2Cc2ccccc21` [Example 148] yielded a melting point of 103 to 107 °C. Also, the inhibition at 30 µM in data set [1] (setting [2]) turned out to be 35%.

For `O=C(NCc1cccnc1)c1ccc2n1Cc1ccccc1N(C(=O)c1ccc(OCc3ccccc3)nc1)C2` [Example 134], the inhibition at 30 µM in data set [1] (setting [2]) was 4%.

Consider `O=C(NCc1cccnc1)c1ccc2n1Cc1ccccc1N(C(=O)c1cc(F)cc(F)c1)C2` [Example 95], for which the melting point was 138 to 140 °C. For the same compound, the inhibition at 30 µM in data set [1] (setting [2]) is 45%.

Regarding `O=C(NCc1cccnc1)c1ccc2n1Cc1ccccc1N(C(=O)c1cccs1)C2` [Example 115], the inhibition at 30 µM in data set [1] (setting [2]) turned out to be 34%.

Compound `O=C(NCc1cccnc1)c1ccc2n1Cc1ccccc1N(C(=O)c1c(F)cccc1F)C2` [Example 86] had a melting point of 103 to 109 °C. For the same compound, the inhibition at 30 µM in data set [1] (setting [2]) is 40%.

`CC(C)C(=O)N1Cc2ccc(C(=O)NCc3cccnc3)n2Cc2ccccc21` [Example 150]: the inhibition at 30 µM in data set [1] (setting [2]) worked out at 20%.

On to `O=C(NCc1cccnc1)c1ccc2n1Cc1ccccc1N(C(=O)c1ccc(NCCO)nc1)C2` [Example 132], for which, in data set [1] (setting [2]), the inhibition at 30 µM came out at 26%.

Turning to `O=C(NCc1cccnc1)c1ccc2n1Cc1ccccc1N(C(=O)c1ccccc1C(F)(F)F)C2` [Example 82], the melting point lay within 157 to 158 °C. The inhibition at 30 µM in data set [1] (setting [2]) came out at 2.4%.

Regarding `O=C(NCc1cccnc1)c1ccc2n1Cc1ccccc1N(C(=O)c1ccc([N+](=O)[O-])cc1)C2` [Example 99], the inhibition at 30 µM in data set [1] (setting [2]) was found to be 35%.

On to `O=C(c1ccccc1)c1ccccc1-c1ccc(C(=O)N2Cc3ccc(C(=O)NCc4cccnc4)n3Cc3ccccc32)cc1` [Example 60], for which the melting point was in the range of 198 to 199 °C. Moreover, in data set [1] (setting [2]), the inhibition at 30 µM worked out at 29%.

With `O=C(NCc1cccnc1)c1ccc2n1Cc1ccccc1N(C(=O)COc1ccccc1)C2` [Example 136], the inhibition at 30 µM in data set [1] (setting [2]) amounted to 41%.

In the case of `O=C(NCc1cccnc1)c1ccc2n1Cc1ccccc1N(C(=O)c1ccc(NCCCc3ccccc3)nc1)C2` [Example 127], the inhibition at 30 µM in data set [1] (setting [2]) worked out at 9%.

The compound `O=C(NCc1cccnc1)c1ccc2n1Cc1ccccc1N(C(=O)c1cccc3ccccc13)C2` [Example 145] came in with a melting point of 188 °C. Moreover, in data set [1] (setting [2]), the inhibition at 30 µM came out at 40%.

Regarding `O=C(NCc1cccnc1)c1ccc2n1Cc1ccccc1N(C(=O)c1ccc(Cl)cc1)C2` [Example 91], the inhibition at 30 µM in data set [1] (setting [2]) was 37%.

As to `O=C(NCc1cccnc1)c1ccc2n1Cc1ccccc1N(C(=O)c1ccc(-c3cncnc3)cc1)C2` [Example 106], the melting point is 172 to 175 °C. Moreover, the inhibition at 30 µM in data set [1] (setting [2]) came to 21%.

Turning to `COc1cccc(CNc2ccc(C(=O)N3Cc4ccc(C(=O)NCc5cccnc5)n4Cc4ccccc43)cn2)c1` [Example 129], the inhibition at 30 µM in data set [1] (setting [2]) worked out at 16%.

As to `Cc1cc(C(=O)N2Cc3ccc(C(=O)NCc4cccnc4)n3Cc3ccccc32)ccc1-c1c(C)cccc1C` [Example 10], the inhibition at 30 µM in data set [1] (setting [2]) is 25%.

Regarding `Cc1cc(C(=O)N2Cc3ccc(C(=O)NCc4cccnc4)n3Cc3ccccc32)ccc1-c1cccc(Cl)c1` [Example 23], in data set [1] (setting [2]), the inhibition at 30 µM amounted to 36%.

`O=C(NCc1cccnc1)c1ccc2n1Cc1ccccc1N(C(=O)c1cnccn1)C2` [Example 123]: the inhibition at 30 µM in data set [1] (setting [2]) turned out to be 41%.

For `O=C(NCc1cccnc1)c1ccc2n1Cc1ccccc1N(C(=O)c1ccc(Cl)nc1)C2` [Example 117], the inhibition at 30 µM in data set [1] (setting [2]) was determined as 24%.
